Values quoted from earlier work in US20260125680A1, “COMPOSITIONS AND METHODS FOR IMMUNE CHECKPOINT INHIBITION” (The General Hospital Corporation, priority 2018, published 2026).

Experiments:
pancreatic cancer = settings: monotherapy
bladder cancer = settings: confirmatory trial

| Substance | response (pancreatic cancer) | primary endpoint of overall survival (bladder cancer) |
| --- | --- | --- |
| Ipilimumab: anti-CTLA-4 | ineffective with no responders |  |
| atezolizumab: FDA approved PD-L1 inhibitor |  | failed to achieve its primary endpoint |
